{
  "source": "patent US12590080B2",
  "about": "“Compounds” (PACKINAX PTY LTD, priority 2020, dated 2026)",
  "key": {"[1]": {"target": "PAK4 kinase (Homo sapiens, UniProt O96013)", "sequence (O96013 whole entry)": "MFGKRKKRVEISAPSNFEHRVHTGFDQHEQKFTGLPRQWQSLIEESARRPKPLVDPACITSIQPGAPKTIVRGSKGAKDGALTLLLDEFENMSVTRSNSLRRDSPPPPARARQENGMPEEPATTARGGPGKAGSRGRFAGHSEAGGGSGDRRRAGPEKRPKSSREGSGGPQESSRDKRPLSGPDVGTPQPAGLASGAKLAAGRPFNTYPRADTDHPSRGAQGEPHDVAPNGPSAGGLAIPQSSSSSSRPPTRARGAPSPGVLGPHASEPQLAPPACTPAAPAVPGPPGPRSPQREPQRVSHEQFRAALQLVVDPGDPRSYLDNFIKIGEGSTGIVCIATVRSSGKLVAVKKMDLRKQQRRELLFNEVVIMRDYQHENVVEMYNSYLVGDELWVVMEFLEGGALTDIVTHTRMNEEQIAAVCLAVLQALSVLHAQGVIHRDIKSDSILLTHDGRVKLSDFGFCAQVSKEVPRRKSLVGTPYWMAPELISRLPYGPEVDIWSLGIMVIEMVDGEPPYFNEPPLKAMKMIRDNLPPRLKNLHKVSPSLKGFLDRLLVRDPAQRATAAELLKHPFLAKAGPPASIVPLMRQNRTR", "assay": "Cell-free kinase assay, PAK4", "format": "biochemical", "conditions": "read-out: IC50, inhibition of PAK4 kinase"}, "[2]": {"target": "PAK1 (Homo sapiens, UniProt Q13153)", "sequence (Q13153 whole entry)": "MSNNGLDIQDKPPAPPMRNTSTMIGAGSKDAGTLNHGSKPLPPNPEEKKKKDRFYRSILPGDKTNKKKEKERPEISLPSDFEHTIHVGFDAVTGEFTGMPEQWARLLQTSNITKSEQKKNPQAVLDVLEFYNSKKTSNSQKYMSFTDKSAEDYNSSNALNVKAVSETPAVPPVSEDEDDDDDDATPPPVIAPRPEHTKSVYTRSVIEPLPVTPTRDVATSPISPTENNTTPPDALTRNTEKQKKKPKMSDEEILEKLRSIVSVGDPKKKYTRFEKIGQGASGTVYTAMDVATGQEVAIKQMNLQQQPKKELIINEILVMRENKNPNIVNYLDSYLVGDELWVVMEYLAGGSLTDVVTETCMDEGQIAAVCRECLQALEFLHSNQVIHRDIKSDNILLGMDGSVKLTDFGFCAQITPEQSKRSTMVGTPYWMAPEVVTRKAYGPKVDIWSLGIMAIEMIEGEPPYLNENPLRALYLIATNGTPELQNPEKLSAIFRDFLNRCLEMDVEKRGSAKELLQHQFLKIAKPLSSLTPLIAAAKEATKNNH", "assay": "Cell-free kinase assay, PAK1", "format": "biochemical"}, "[3]": {"tested_on": "PANC1 (pancreatic cancer)", "assay": "Cell proliferation, PANC1", "format": "cell-based, human", "source_text": "(§1) Pancreatic cancer cell lines MiaPaCa-2, PANC1 (human), TB33117 (mouse), and KPCWT833 were used to test the effect of Compound Ia on cell proliferation. PANC1 and TB33117 cell lines express high levels of PAK1 and PAK4, while MiaPaCa-2 cell has low levels of PAK1 and PAK4 (Yeo, 2014 and unpublished data). […] Compound Ia was also shown to inhibit colorectal cell line MC-38, brain glioblastoma cancer cell like U-87, melanoma cell line B16F1, liver cell line HepG2, and bile duct cancer cell line EIG-1 at low to sub-micromolar IC50 values."}, "[4]": {"tested_on": "TB33117 (pancreatic cancer)", "assay": "Cell proliferation, TB33117", "format": "cell-based, mouse", "source_text": "as §1"}, "[5]": {"tested_on": "MiaPaCa-2 (pancreatic cancer)", "assay": "Cell proliferation, MiaPaCa-2", "format": "cell-based", "conditions": "Homo sapiens, MIA PaCa-2", "source_text": "as §1"}, "[6]": {"tested_on": "KPCWT833 (pancreatic cancer)", "assay": "Cell proliferation, KPCWT833", "format": "cell-based", "source_text": "as §1"}, "[7]": {"tested_on": "MC-38 (colon cancer)", "assay": "Cell proliferation, MC-38", "format": "cell-based", "conditions": "Mus musculus", "source_text": "as §1"}, "[8]": {"tested_on": "U-87 (brain tumour)", "assay": "Cell proliferation, U-87", "format": "cell-based", "conditions": "Homo sapiens, U-87 MG", "source_text": "as §1"}, "[9]": {"tested_on": "B16F10 (skin cancer)", "assay": "Cell proliferation, B16F10", "format": "cell-based", "conditions": "Mus musculus, B16-F10"}, "[10]": {"tested_on": "HepG2 (liver cancer)", "assay": "Cell proliferation, HepG2", "format": "cell-based", "conditions": "Homo sapiens", "source_text": "as §1"}, "[11]": {"tested_on": "EIG-1 (cholangiocarcinoma)", "assay": "Cell proliferation, EIG-1", "format": "cell-based", "source_text": "as §1"}, "[12]": {"tested_on": "PD-L1", "assay": "Western blot of PD-L1 expression in DLD-1 cells", "format": "cell-based", "conditions": "DLD-1 cells, 0, 1, 10, 20, 50 μM, 24 h", "procedure": "(§2) Cells from a colorectal cancer cell line (DLD-1) were incubated with Compound Ia (0, 1, 10, 20, 50 μM), or with compound PF-3758309 (500 nM) for 24 h. At the end of 24 h culture, the medium was removed from the cells, and the cells were washed once with PBS. The cells were lysed in SDS-sample buffer. The resultant cell lysates were subjected to 10% SDS-PAGE to separate the proteins with different molecular weights, which then were blotted with antibodies against PD-L1, PAK1, PAK4, α-SMA and GAPDH."}, "[13]": {"tested_on": "PAK4", "assay": "Western blot of PAK4 expression in DLD-1 cells", "format": "cell-based", "conditions": "24 h", "procedure": "as §2"}, "[14]": {"tested_on": "alpha smooth muscle actin (α-SMA)", "assay": "Western blot of α-SMA expression in DLD-1 cells", "format": "cell-based", "conditions": "24 h", "procedure": "as §2"}, "[15]": {"target": "T1, CHEK2 (Homo sapiens, UniProt O96017)", "T1 construct": "purchased Promega (Sydney, NSW, Australia)", "T1 sequence (O96017 whole entry)": "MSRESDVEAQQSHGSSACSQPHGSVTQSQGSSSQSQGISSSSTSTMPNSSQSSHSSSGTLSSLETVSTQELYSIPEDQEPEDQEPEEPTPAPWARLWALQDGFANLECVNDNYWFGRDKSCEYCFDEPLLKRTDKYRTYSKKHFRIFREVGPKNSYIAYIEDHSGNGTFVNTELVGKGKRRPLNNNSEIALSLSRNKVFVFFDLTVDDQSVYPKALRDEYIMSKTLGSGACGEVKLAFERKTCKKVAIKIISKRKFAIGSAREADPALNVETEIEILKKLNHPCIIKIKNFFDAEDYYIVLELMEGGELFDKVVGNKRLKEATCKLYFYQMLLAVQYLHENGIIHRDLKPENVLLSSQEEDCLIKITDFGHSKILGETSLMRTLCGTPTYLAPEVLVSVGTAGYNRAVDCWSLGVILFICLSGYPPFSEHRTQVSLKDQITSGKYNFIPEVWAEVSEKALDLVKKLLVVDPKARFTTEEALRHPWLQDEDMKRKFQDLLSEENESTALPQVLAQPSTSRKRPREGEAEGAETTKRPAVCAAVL", "assay": "ADP-Glo kinase assay, CHEK2", "format": "biochemical", "procedure": "The effects of Compound Ia on CHEK2 kinase activity was assessed using an ADP-Glo kinase assay kit purchased from Promega (Sydney, NSW, Australia). The assay was undertaken in accordance with the manufacturer's instructions."}, "[16]": {"tested_on": "KPC833 cells", "assay": "In vivo efficacy in combination with Gemcitabine, subcutaneous KPC833 tumours in C57Bl6"}, "[17]": {"tested_on": "immunological biomarkers in tumour tissues", "assay": "Immunological biomarkers in tumour tissues by flow cytometry, syngeneic mouse models of pancreatic cancer", "format": "in vivo", "conditions": "combination with Gemcitabine", "procedure": "The effects of Compound Ia on immunological biomarkers was assessed using syngeneic mouse models of pancreatic cancer.\nSingle cell suspension was made from tumour tissues isolated from mice treated with either gemcitabine alone or gemcitabine plus PAK227. The cell suspension was incubated with antibodies against CD45, CD4, CD8, B220, PD-L1, PD-1, CD11b and Ly6c, and then subjected to a flow-cytometry machine for cell number counting and percentage calculation."}, "[18]": {"assay": "Dissolution of the prodrug in ethanol/water", "format": "physicochemical", "conditions": "67% ethanol in water solution"}},
  "note": "Entries after “also recorded” stand apart in the source; their conditions may differ. Where a name gives a salt, the structure may show the parent alone. Read-outs that look alike come from different tables or passages of the source.",
  "data": [
    {"compound": "CNc1ncc(-c2ccc(Cc3c(Cl)cc(OC)cc3Cl)o2)cn1", "note": "[Compound Ia, 5-[5-[(2,6-dichloro-4-methoxyphenyl)methyl]furan-2-yl]-N-methylpyrimidin-2-amine]", "values": [
      {"measurement": "IC50", "setting": "[1]", "value": "200 to 500", "unit": "nM"},
      {"measurement": "effect on the kinase activity of PAK1", "setting": "[2]", "value": "did not show significant effect"},
      {"measurement": "IC50", "setting": "[3]; Homo sapiens, PANC-1, PANC1", "value": 1110, "unit": "nM"},
      {"measurement": "IC50", "setting": "[3]; PANC1", "value": "1000 to 2000", "unit": "nM"},
      {"measurement": "IC50", "setting": "[4]", "value": "1000 to 2000", "unit": "nM"},
      {"measurement": "IC50", "setting": "[4]; Mus musculus", "value": 1720, "unit": "nM"},
      {"measurement": "IC50", "setting": "[5]", "value": 8290, "unit": "nM"},
      {"measurement": "IC50", "setting": "[6]", "value": "1230 ± 390", "unit": "nM"},
      {"measurement": "IC50", "setting": "[7]", "value": "460 ± 390", "unit": "nM"},
      {"measurement": "IC50", "setting": "[8]", "value": "6550 ± 3550", "unit": "nM"},
      {"measurement": "IC50", "setting": "[9]", "value": 13300, "unit": "nM"},
      {"measurement": "IC50", "setting": "[10]", "value": "3760 ± 660", "unit": "nM"},
      {"measurement": "IC50", "setting": "[11]", "value": 4630, "unit": "nM"},
      {"measurement": "expression of PD-L1", "setting": "[12]", "value": "dose-dependently inhibited"},
      {"measurement": "expression of PD-L1", "setting": "[12]; listed as Compound Ta", "value": "reduced the expression of PD-L1 to a comparable level"},
      {"measurement": "expression of PAK4", "setting": "[13]", "value": "reduced expression"},
      {"measurement": "expression of alpha smooth muscle actin (α-SMA)", "setting": "[14]", "value": "reduced expression"},
      {"measurement": "IC50", "setting": "[15]", "value": 737, "unit": "nM"},
      {"measurement": "toxicity (body weight)", "setting": "[16]; combination with Gemcitabine", "value": "no body weight loss was observed"},
      {"measurement": "tumour volume compared to untreated control tumours", "setting": "[16]; combination with Gemcitabine, 21 days and 31 days, 40 mg/Kg subcutaneous every other day", "value": "regression of pancreatic tumour growth"},
      {"measurement": "efficacy against advanced tumours compared to Gemcitabine alone", "setting": "[16]; combination with Gemcitabine, tumour size=100 mm^3", "value": "improved efficacy"},
      {"measurement": "tumour volume over 21 days compared to gemcitabine alone", "setting": "[16]; intra-tumour injection 10 mg/kg on day 1, followed by gemcitabine 50 mg/kg", "value": "decreased tumour volume"},
      {"measurement": "expression of immunological biomarkers in tumour tissues compared to Gemcitabine alone", "setting": "[17]", "value": "increases the expression of immunological biomarkers; also recorded: increases various immunological biomarkers"}
    ]},
    {"compound": "COc1cc(Cl)c(Cc2ccc(-c3cnc(NC(=O)CN)nc3)o2)c(Cl)c1", "note": "[Compound Ic, 2-amino-N-(5-{5-[(2,6-dichloro-4-methoxyphenyl)methyl]furan-2-yl}pyrimidin-2-yl)acetamide hydrochloride]", "values": [
      {"measurement": "solubility in ethanol/water", "setting": "[18]", "value": "able to be dissolved"}
    ]},
    {"compound": "Cc1nc(Nc2n[nH]c3c2CN(C(=O)N[C@H](CN(C)C)c2ccccc2)C3(C)C)c2sccc2n1", "note": "[PF3758309, reference compound]", "values": [
      {"measurement": "IC50", "setting": "[3]; Homo sapiens, PANC-1, PANC1", "value": 500, "unit": "nM"},
      {"measurement": "IC50", "setting": "[4]; Mus musculus", "value": 805, "unit": "nM"},
      {"measurement": "IC50", "setting": "[5]", "value": 87, "unit": "nM"}
    ]}
  ]
}
